Laboratory results taken from US20210371422A1, “MORPHINAN DERIVATIVE” (priority 2016, published 2021).
Counter-ions that a name gives are not always drawn. Like-named read-outs stand apart in the source and are kept apart here.

What was measured:
human opioid δ receptor = molecular target: T1, human opioid δ receptor (Homo sapiens, UniProt P41143); assay: Opioid receptor function test (Lance Ultra cAMP Kit), δ receptor; format: cell-based; conditions: for EC50: CHO cells expressing human δ receptor, cAMP, in the presence of forskolin, read-out: δ receptor EC° C.; for Emax: ratio to maximum reaction of control drug SNC80 (100%)
T1 construct: host or cells: CHO cells
T1 sequence (P41143 whole entry): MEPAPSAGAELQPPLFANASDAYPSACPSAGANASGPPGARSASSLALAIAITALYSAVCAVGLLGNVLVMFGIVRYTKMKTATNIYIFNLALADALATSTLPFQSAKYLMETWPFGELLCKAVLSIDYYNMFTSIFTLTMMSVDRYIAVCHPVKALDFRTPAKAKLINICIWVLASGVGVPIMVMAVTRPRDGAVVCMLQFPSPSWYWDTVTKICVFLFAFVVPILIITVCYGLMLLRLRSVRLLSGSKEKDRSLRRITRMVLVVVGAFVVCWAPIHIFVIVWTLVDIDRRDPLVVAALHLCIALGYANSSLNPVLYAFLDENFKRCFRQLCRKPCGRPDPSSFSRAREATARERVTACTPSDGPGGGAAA
Experimental: (§1) Opioid Receptor Function Test
(§2) The functional activities of the compounds provided by the present invention on the μ, δ, and κ opioid receptors were investigated.
(§3) The test was performed by using Lance Ultra cAMP Kit (PerkinElmer) according to a method predetermined for the kit. In the evaluation of the agonistic activity, CHO cells expressing each of the human opioid receptors (δ, μ, and κ, accession numbers and catalog numbers are mentioned below) and 10 μM of each test compound were reacted for 30 minutes in an assay buffer (1×HESS, […], pH 7.4, […] (isobutylmethylxanthine), 7.5% BSA) in the presence of forskolin. Subsequently, the cAMP detection reagent included in the kit was added, and 1 hour afterward, time-resolved fluorescence measurement was performed by using the EnVision plate reader (PerkinElmer). The test compounds and the control drugs (δ: SNC80, μ: DAMGO, K: U-69593) were evaluated in a concentration range of 10^-12 to 10^-5 M, a dose-response curve of each test compound was obtained from the fluorescence values at 665 nm, and EC50 value and the Emax value were calculated. The Emax value was calculated as a ratio of the maximum reaction of the test compound to the maximum reaction of each control drug, which is taken as 100%.

human opioid μ receptor = molecular target: T2, human opioid μ receptor (Homo sapiens, UniProt P35372); assay: Opioid receptor function test (Lance Ultra cAMP Kit), μ receptor; format: cell-based; conditions: for EC50: CHO cells expressing human μ receptor, cAMP, N.C. = maximum reaction not reached at highest concentration (10 μM), not calculated, read-out: μ receptor EC° C.
T2 construct: host or cells: CHO cells
T2 sequence (P35372 whole entry): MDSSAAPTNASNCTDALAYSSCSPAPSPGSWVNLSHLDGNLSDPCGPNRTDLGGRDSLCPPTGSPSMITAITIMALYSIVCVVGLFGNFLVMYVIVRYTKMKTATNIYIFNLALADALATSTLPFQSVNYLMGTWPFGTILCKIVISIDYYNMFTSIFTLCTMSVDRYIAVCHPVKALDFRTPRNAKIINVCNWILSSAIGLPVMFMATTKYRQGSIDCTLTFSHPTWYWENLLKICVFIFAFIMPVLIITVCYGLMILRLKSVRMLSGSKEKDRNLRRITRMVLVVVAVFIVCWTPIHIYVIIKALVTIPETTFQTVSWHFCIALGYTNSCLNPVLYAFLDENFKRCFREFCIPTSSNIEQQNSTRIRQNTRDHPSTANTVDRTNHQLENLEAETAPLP
Experimental: as §1, §2, §3

human opioid κ receptor = molecular target: T3, human opioid κ receptor (Homo sapiens, UniProt P41145); assay: Opioid receptor function test (Lance Ultra cAMP Kit), κ receptor; format: cell-based
T3 construct: host or cells: CHO cells
T3 sequence (P41145 whole entry): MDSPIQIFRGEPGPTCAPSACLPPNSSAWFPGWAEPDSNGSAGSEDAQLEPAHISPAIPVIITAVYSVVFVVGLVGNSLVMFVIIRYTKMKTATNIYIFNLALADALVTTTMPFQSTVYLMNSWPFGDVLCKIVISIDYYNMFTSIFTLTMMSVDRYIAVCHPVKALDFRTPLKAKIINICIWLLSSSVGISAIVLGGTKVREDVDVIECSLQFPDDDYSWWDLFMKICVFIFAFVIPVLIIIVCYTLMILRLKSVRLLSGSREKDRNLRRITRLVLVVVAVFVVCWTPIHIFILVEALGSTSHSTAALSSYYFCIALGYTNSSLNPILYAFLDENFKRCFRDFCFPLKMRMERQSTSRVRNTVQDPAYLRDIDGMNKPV
Experimental: as §1, §2, §3

hERG potassium channel = molecular target: T4, hERG potassium channel (Homo sapiens, UniProt Q12809); assay: hERG potassium channel inhibition test (automatic patch clamp); format: cell-based; conditions: for hERG channel inhibitory effect: hERG-expressing CHO cells
T4 construct: host or cells: CHO cells
T4 sequence (Q12809 whole entry): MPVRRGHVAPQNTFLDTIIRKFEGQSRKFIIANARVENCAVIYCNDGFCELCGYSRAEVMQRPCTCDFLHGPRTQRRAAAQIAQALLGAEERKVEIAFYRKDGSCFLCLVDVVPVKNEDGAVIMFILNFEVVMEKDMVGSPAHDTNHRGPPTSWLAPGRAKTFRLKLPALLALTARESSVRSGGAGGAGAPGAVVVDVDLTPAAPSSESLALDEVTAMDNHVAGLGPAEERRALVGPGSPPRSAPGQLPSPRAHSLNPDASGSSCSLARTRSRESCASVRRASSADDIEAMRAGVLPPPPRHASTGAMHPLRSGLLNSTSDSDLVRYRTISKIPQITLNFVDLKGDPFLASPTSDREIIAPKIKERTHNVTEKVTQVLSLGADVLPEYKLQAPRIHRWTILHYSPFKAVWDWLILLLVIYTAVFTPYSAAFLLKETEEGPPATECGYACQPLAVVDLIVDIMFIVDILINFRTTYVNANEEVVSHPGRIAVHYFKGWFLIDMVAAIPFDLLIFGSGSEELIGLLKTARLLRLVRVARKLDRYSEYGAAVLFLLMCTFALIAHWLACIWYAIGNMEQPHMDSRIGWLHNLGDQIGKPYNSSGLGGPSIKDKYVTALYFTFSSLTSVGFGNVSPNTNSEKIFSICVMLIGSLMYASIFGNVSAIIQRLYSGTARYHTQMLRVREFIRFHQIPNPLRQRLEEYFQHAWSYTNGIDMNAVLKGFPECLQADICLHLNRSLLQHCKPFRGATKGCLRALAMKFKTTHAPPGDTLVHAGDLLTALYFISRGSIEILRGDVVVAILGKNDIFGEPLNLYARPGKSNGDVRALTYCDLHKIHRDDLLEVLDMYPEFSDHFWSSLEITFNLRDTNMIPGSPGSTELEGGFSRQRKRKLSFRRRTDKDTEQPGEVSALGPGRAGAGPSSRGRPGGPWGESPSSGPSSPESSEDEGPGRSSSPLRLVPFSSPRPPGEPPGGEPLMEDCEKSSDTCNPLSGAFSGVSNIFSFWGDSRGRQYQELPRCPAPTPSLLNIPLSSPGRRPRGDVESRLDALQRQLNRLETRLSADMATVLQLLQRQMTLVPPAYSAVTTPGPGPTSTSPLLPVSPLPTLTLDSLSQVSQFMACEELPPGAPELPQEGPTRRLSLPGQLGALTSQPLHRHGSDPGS
Experimental: Human Ether-a-Go-Go Related Gene (hERG) Potassium Channel Inhibition Test
The test was performed with Port-a-Patch automatic patch clump apparatus (Manion Technologies) using hERG channel-stably expressing CHO cells (purchased from Channelopathy Foundation). The membrane potential of the cells was maintained at −80 mV, then there were applied a depolarization pulse at +20 mV for 1.5 seconds, and a following test pulse at −50 mV for 1.5 seconds at a frequency of 1 time per 10 seconds, and the hERG current was confirmed as a tail current induced by the test pulse. The test compound was dissolved in an extracellular fluid (137 mM NaCl, 4 mM KCl, 1.8 mM CaCl2, 1 mM MgCl2, 10 mM D(+)-glucose, 10 mM HEPES, pH 7.4), and the solution was […] at room temperature for 5 minutes. The inhibition ratio was obtained from the ratio of the tail current value observed after the compound was applied based on the tail current value observed before the compound was applied, which was taken as 100%.

Wistar male rats = assay: Rat elevated plus maze test; format: in vivo
Experimental: Rat Elevated Plus Maze Test
An anxiolytic effect of a compound provided by the present invention was examined using the rat elevated plus maze test.
For the test, 7 to 9 weeks old Wistar male rats were used. […] Each test substance was dissolved in a 4.5% aqueous solution of cyclodextrin, and orally administered 2 hours before the start of the test. The test data were automatically analyzed by using video image action analysis software (Smart3.0, PanLab S.L., PanLab), and wall-less running route staying time ratio (%) was calculated.

[1] = Intracerebral migration test (concentration in cerebrospinal fluid and plasma); format: in vivo; conditions: male, Wistar, sc, rat, 3 mg/kg s.c., 30 minutes after administration
Experimental: Intracerebral Migration Test
A Wistar male 5-9 week old rat was used for the test. A test substance was dissolved in saline or a 4.5% cyclodextrin aqueous solution, and 1 mol/L hydrochloric acid (0.5 to 2.0 v/v %) was added thereto as necessary. The test substance was subcutaneously administered to the rat at a dose of 3 or 10 mg/kg. Thirty minutes later, cerebrospinal fluid was collected from the cisterna magna under isoflurane anesthesia. Subsequently, laparotomy was performed, and blood was collected from the vena cava. Thereafter, the blood was centrifuged at 1500×g at 4° C. for 15 minutes to obtain plasma. The animal was euthanized promptly by aortic cutting. The concentrations of the test substance in cerebrospinal fluid and plasma were measured using LC-MS/MS.

C57BL/6N male mice = assay: Mouse elevated plus maze test; format: in vivo; conditions: 0.3 mg/kg subcutaneous administration, 30 minutes before test (FIG. 1)
Experimental: Mouse Elevated Plus Maze Test
For the test, 5 to 6 weeks old C57BL/6N male mice were used. On a plus maze apparatus consisting of a wall-less running route (open arm, width 6 cm, length 30 cm) and a running route with a wall (closed arm, width 6 cm, length 30 cm, height of wall 15 cm), and having a height of 40 cm, a mouse was put so as to be directed to the running route with a wall, and allowed to spontaneously enter into the plus maze. Each test substance was dissolved in saline or 0.005 N HCl in saline, and subcutaneously administered on the back 30 minutes before the start of the test. At the time of the start of the test, video recording with a video camera was started, the time at which the mouse entered into the plus maze is considered to be the start of the test, and exploratory behavior was recorded for 5 minutes. On the basis of the video image, staying time in the running routes were determined, and wall-less running route staying time ratio (%) was calculated.

[2] = read-out: μ receptor Emax (*reaction rate at the highest concentration, reference value)
[3] = read-out: κ receptor Emax (*reaction rate at the highest concentration, reference value)
[4] = ratio to maximum reaction of control drug DAMGO (100%), read-out: μ receptor Emax

SMILES | EC50 (human opioid δ receptor) [nM] | Emax (human opioid δ receptor) [%] | Emax (human opioid μ receptor; [2]) [%] | hERG channel inhibitory effect (in words) (hERG potassium channel) | hERG channel inhibitory effect (hERG potassium channel; concentration 10 μM) [%] | Emax (human opioid κ receptor; [3]) [%] | further results
O=C([C@H]1CCCNC1)N1C[C@H]2C[C@@]34CC[C@@H]1[C@@H]2[C@@]31CCN(CC2CC2)[C@@H]4Cc2ccc(O)cc21 [Example 6, ((1S,3aR,5aS,6R,11bR,11cS)-14-(cyclopropylmethyl)-10-hydroxy-1,2,3a,4,5,6,7,11c-octahydro-3H-6,11b-(epiminoethano)-1,5a-methanonaphtho[1,2-e]indol-3-yl) ((S)-piperidin-3-yl) methanone dihydrochloride] | < 3 | 74 | 5.5 |  |  |  | EC50 (human opioid κ receptor): < 1 nM; Emax (human opioid κ receptor; read-out: κ receptor Emax): 11%
O=C([C@H]1CCCCN1)N1C[C@H]2C[C@@]34CC[C@@H]1[C@@H]2[C@@]31CCN(CC2CC2)[C@@H]4Cc2ccc(O)cc21 [Example 4, ((1S,3aR,5aS,6R,11bR,11cS)-14-(cyclopropylmethyl)-10-hydroxy-1,2,3a,4,5,6,7,11c-octahydro-3H-6,11b-(epiminoethano)-1,5a-methanonaphtho[1,2-e]indol-3-yl) ((R)-piperidin-2-yl) methanone dihydrochloride] | < 3 | 82 | 0.87 | only a weak inhibitory effect | <50 | 5 | 
O=C([C@H]1CCCN1)N1C[C@H]2C[C@@]34CC[C@@H]1[C@@H]2[C@@]31CCN(CC2CC2)[C@@H]4Cc2ccc(O)cc21 [Example 2, (1S,3aR,5aS,6R,11bR,11cS)-3-(D-prolyl)-14-(cyclopropylmethyl)-10-hydroxy-2,3,3a,4,5,6,7,11c-octahydro-1H-6,11b-(epiminoethano)-1,5a-methanonaphtho[1,2-e]indole dihydrochloride] | < 3 | 95 | 3.8 | only a weak inhibitory effect | <50 | 3.8 | 
O=C([C@H]1CCCO1)N1C[C@H]2CC34CCC1C2C31CCN(CC2CC2)C4Cc2ccc(O)cc21 (stereo partly drawn) [Example 12, ((1S,3aR,5aS,6R,11bR,11cS)-14-(cyclopropylmethyl)-10-hydroxy-1,2,3a,4,5,6,7,11c-octahydro-3H-6,11b-(epiinoetano)-1,5a-methanonaphtho[1,2-e]indol-3-yl) ((R)-tetrahydrofuran-2-yl) methanone] | < 1 | 85 |  |  |  | 8.7 | minimum effective medicinal dose (Wistar male rats; rat elevated plus maze test, p. o.): 0.3 mg/kg; wall-less traveling path residence time rate (Wistar male rats; rat, 0.3 mg/kg oral administration, 2 hours before test (FIG. 2)): significantly increases; hERG channel inhibitory effect (hERG potassium channel; concentration 1 μM): <50%; EC50 (human opioid μ receptor): > 1 nM; Emax (human opioid μ receptor; [4]): 12%; concentration at 30 min ([1]; cerebrospinal fluid, read-out: Concentration in cerebrospinal fluid): 42 nM; concentration at 30 min ([1]; plasma, read-out: Concentration in plasma): 580 nM; wall-less traveling path residence time rate (C57BL/6N male mice): significantly increases
CN1CCC[C@@H]1C(=O)N1C[C@H]2C[C@@]34CC[C@@H]1[C@@H]2[C@@]31CCN(CC2CC2)[C@@H]4Cc2ccc(O)cc21 [Example 9, (1S,3aR,5aS,6R,11bR,11cS)-14-(cyclopropylmethyl)-10-hydroxy-3-(methyl-D-prolyl)-2,3,3a,4,5,6,7,11c-octahydro-1H-6,11b-(epiminoethano)-1,5a-methanonaphtho[1,2-e]indol] | < 3 | 64 | -0.6 |  |  | 3.7 | 
O=C1CC[C@H](C(=O)N2C[C@H]3C[C@@]45CC[C@@H]2[C@@H]3[C@@]42CCN(CC3CC3)[C@@H]5Cc3ccc(O)cc32)O1 [Example 13, (R)-5-((1S,3aR,5aS,6R,11bR,11cS)-14-(cyclopropylmethyl)-10-hydroxy-2,3,3a,4,5,6,7,11c-octahydro-1H-6,11b-(epiminoethano)-1,5a-methanonaphtho[1,2-e]indole-3-carbonyl) dihydrofuran-2(3H)-one] | < 3 | 70 |  |  |  |  | hERG channel inhibitory effect (hERG potassium channel; concentration 1 μM): <50%; EC50 (human opioid μ receptor): > 1 nM; Emax (human opioid μ receptor; [4]): 35%; EC50 (human opioid κ receptor; CHO cells expressing human κ receptor, cAMP, N.C. = maximum reaction not reached at highest concentration (10 μM), not calculated, read-out: κ receptor EC° C.): < 1 nM; Emax (human opioid κ receptor; ratio to maximum reaction of control drug U-69593 (100%), read-out: κ receptor Emax): 13%
O=C([C@H]1CCCO1)N1C[C@H]2CC34CCC1C2C31CCNC4Cc2ccc(O)cc21 (stereo partly drawn) [Example 14, ((1S,3aR,5aS,6R,11bR,11cS)-10-hydroxy-1,2,3a,4,5,6,7,11c-octahydro-3H-6,11b-(epiinoetano)-1,5a-methanonaphtho[1,2-e]indol-3-yl) ((R)-tetrahydrofuran-2-yl) methanone] |  |  |  | only a weak inhibitory effect | <50 |  | 
